# Results reported in ChEMBL document CHEMBL2413062, “Effect of single pyrrole replacement with β-alanine on DNA binding affinity and sequence specificity of hairpin pyrrole/imidazole polyamides targeting 5'-GCGC-3'” (Bioorg Med Chem, 2013).
# Experiments:
# [1] = Binding affinity to hair pin DNA ODN3 5'-XGCCAGCACGGCTTTTGCCGTGCTGGC-3' (unknown origin) by surface plasmon resonance analysis
# [2] = Binding affinity to hair pin DNA ODN4 5'-XGCCATGACGGCTTTTGCCGTACTGGC-3' (unknown origin) by surface plasmon resonance analysis
# [3] = Selectivity ratio of Kd for mismatched hair pin DNA ODN3 5'-XGCCAGCACGGCTTTTGCCGTGCTGGC-3' (unknown origin) to Kd for hair pin DNA ODN1 5'-XGCCAGCGCGGCTTTTGCCGCGCTGGC-3' (unknown origin)
# [4] = Binding affinity to hair pin DNA ODN2 5'-XGCCAGTGCGGCTTTTGCCGCACTGGC-3' (unknown origin) by surface plasmon resonance analysis
# [5] = Binding affinity to hair pin DNA ODN1 5'-XGCCAGCGCGGCTTTTGCCGCGCTGGC-3' (unknown origin) by surface plasmon resonance analysis
# [6] = Selectivity ratio of Kd for mismatched hair pin DNA ODN2 5'-XGCCAGTGCGGCTTTTGCCGCACTGGC-3' (unknown origin) to Kd for hair pin DNA ODN1 5'-XGCCAGCGCGGCTTTTGCCGCGCTGGC-3' (unknown origin)
# [7] = Selectivity ratio of Kd for mismatched hair pin DNA ODN4 5'-XGCCATGACGGCTTTTGCCGTACTGGC-3' (unknown origin) to Kd for hair pin DNA ODN1 5'-XGCCAGCGCGGCTTTTGCCGCGCTGGC-3' (unknown origin)
Structure (SMILES),Kd [1] [nM],Kd [2] [nM],Ratio [3],Kd [4] [nM],Kd [5] [nM],Ratio [6],Ratio [7]
CN(C)CCCNC(=O)CCNC(=O)c1cc(NC(=O)c2nc(NC(=O)CCNC(=O)c3nc(NC(=O)CCCNC(=O)c4cc(NC(=O)c5nc(NC(=O)CCNC(=O)c6nc(NC(=O)CCNC(=O)CCN)cn6C)cn5C)cn4C)cn3C)cn2C)cn1C,11,18,17,11,0.63,17,29
CN(C)CCCNC(=O)CCNC(=O)c1cc(NC(=O)c2nc(NC(=O)c3cc(NC(=O)c4nc(NC(=O)CCCNC(=O)c5cc(NC(=O)c6nc(NC(=O)CCNC(=O)c7nc(NC(=O)CCNC(=O)CCN)cn7C)cn6C)cn5C)cn4C)cn3C)cn2C)cn1C,11,47,,89,0.44,,
CN(C)CCCNC(=O)CCNC(=O)c1cc(NC(=O)c2nc(NC(=O)CCNC(=O)c3nc(NC(=O)CCCNC(=O)c4cc(NC(=O)c5nc(NC(=O)c6cc(NC(=O)c7nc(NC(=O)CCNC(=O)CCN)cn7C)cn6C)cn5C)cn4C)cn3C)cn2C)cn1C,83,190,120,11,0.7,16,270
CN(C)CCCNC(=O)CCNC(=O)c1cc(NC(=O)c2nc(NC(=O)c3cc(NC(=O)c4nc(NC(=O)CCCNC(=O)c5cc(NC(=O)c6nc(NC(=O)c7cc(NC(=O)c8nc(NC(=O)CCNC(=O)CCN)cn8C)cn7C)cn6C)cn5C)cn4C)cn3C)cn2C)cn1C,63000,82000,230,68000,270,250,300
